Patent US11547697B2, “Heterocyclic compounds and uses thereof” (MILLENNIUM PHARMACEUTICALS, INC., priority 2009, dated 2023)
Like-named read-outs stand apart in the source and are kept apart here.

Columns and labels:
Assay type in all cases: biochemical
p110γ = p110γ (Homo sapiens (Human), UniProt P48736); assay: PI 3-Kinase (human) HTRF assay, p110γ
p110β/p85α = p110β/p85α (Homo sapiens (Human), UniProt P42338); assay: PI 3-Kinase (human) HTRF assay, p110β/p85α
p110α/p85α = p110α/p85α (Homo sapiens (Human), UniProt P42336); assay: PI 3-Kinase (human) HTRF assay, p110α/p85α
Sequence of p110α/p85α (P42336 whole entry): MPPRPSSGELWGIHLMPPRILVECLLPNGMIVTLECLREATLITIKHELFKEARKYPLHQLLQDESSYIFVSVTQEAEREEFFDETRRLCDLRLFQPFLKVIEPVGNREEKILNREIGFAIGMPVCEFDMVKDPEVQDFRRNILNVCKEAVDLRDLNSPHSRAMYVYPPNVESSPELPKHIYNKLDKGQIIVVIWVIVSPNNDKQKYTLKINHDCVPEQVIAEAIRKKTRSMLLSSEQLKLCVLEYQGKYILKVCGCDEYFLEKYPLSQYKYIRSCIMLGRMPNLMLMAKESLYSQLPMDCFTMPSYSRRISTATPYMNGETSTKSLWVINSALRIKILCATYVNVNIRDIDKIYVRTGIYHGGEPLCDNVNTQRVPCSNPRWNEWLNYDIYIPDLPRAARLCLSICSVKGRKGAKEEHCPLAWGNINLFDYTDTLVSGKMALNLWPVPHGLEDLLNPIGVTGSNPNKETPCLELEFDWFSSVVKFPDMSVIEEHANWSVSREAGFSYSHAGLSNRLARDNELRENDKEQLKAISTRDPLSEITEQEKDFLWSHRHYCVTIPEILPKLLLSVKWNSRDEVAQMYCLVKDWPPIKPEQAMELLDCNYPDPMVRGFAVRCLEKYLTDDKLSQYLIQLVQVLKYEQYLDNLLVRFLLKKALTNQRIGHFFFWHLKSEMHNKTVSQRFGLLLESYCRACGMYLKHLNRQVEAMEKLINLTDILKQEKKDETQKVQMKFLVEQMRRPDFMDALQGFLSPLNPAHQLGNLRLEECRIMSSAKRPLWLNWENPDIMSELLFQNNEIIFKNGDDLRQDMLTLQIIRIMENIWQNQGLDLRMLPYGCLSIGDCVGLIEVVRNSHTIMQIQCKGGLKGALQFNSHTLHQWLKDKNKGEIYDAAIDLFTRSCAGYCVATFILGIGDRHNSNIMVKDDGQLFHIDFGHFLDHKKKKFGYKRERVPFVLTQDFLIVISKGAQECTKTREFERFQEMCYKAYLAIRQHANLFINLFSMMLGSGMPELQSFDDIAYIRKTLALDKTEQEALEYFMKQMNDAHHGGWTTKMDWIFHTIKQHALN
Sequence of p110α/p85α (P27986 whole entry partner): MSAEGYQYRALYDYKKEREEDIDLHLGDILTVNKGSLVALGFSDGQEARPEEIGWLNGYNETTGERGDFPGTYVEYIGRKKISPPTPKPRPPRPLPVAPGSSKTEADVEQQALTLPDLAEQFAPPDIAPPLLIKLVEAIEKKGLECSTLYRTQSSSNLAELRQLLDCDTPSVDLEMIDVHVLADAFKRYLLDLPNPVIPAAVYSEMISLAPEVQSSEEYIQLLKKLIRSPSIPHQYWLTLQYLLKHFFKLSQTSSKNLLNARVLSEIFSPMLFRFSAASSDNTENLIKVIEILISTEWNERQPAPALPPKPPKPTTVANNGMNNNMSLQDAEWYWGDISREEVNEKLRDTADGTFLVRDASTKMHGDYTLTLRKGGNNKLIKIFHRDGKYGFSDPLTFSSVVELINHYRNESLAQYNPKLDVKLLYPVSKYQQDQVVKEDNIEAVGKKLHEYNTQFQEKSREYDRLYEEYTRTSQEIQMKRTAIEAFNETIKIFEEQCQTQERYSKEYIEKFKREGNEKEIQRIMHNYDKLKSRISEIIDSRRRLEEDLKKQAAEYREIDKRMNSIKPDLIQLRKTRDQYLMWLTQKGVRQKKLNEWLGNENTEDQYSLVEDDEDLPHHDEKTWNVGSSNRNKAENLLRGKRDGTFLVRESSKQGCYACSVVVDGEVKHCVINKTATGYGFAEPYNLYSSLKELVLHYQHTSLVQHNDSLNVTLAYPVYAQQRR

p110δ/p85α = p110δ/p85α (Homo sapiens (Human), UniProt O00329); assay: PI 3-Kinase (human) HTRF assay, p110δ/p85α
Sequence of p110δ/p85α (O00329 whole entry): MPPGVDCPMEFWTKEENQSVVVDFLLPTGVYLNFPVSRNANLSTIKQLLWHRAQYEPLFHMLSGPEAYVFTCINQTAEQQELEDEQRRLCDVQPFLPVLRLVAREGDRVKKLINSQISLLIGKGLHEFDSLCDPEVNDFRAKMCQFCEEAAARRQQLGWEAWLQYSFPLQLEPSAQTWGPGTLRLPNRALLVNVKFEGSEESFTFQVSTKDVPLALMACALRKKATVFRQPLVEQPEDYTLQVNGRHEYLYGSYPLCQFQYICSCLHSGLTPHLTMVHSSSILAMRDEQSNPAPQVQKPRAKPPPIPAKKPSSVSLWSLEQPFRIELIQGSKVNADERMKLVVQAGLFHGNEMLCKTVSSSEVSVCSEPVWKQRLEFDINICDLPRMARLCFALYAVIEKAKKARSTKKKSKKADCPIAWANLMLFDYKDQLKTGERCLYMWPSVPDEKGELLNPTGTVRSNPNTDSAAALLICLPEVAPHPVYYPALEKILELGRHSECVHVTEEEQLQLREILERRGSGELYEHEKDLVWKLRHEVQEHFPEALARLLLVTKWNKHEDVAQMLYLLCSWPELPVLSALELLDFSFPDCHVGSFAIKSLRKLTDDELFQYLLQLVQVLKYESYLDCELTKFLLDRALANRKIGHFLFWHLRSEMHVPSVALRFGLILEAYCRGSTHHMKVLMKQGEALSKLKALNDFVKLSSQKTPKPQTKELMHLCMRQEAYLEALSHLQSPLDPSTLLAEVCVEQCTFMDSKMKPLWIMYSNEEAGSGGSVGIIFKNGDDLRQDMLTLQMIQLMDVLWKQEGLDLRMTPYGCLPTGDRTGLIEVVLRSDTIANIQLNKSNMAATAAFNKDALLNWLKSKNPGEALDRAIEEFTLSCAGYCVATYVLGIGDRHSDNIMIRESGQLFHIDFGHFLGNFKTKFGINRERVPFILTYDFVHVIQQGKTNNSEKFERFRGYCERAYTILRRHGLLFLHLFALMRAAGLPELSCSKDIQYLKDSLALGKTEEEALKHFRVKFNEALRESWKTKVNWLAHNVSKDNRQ
Sequence of p110δ/p85α (P27986 whole entry partner): as the sequence (P27986 whole entry partner) above

[1] = in vitro, read-out: PI3K γ IC50
[2] = in vitro, read-out: PI3K β IC50
[3] = in vitro, read-out: PI3K δ IC50
[4] = in vitro, read-out: PI3K α IC50

Sequence of p110γ (P48736 whole entry): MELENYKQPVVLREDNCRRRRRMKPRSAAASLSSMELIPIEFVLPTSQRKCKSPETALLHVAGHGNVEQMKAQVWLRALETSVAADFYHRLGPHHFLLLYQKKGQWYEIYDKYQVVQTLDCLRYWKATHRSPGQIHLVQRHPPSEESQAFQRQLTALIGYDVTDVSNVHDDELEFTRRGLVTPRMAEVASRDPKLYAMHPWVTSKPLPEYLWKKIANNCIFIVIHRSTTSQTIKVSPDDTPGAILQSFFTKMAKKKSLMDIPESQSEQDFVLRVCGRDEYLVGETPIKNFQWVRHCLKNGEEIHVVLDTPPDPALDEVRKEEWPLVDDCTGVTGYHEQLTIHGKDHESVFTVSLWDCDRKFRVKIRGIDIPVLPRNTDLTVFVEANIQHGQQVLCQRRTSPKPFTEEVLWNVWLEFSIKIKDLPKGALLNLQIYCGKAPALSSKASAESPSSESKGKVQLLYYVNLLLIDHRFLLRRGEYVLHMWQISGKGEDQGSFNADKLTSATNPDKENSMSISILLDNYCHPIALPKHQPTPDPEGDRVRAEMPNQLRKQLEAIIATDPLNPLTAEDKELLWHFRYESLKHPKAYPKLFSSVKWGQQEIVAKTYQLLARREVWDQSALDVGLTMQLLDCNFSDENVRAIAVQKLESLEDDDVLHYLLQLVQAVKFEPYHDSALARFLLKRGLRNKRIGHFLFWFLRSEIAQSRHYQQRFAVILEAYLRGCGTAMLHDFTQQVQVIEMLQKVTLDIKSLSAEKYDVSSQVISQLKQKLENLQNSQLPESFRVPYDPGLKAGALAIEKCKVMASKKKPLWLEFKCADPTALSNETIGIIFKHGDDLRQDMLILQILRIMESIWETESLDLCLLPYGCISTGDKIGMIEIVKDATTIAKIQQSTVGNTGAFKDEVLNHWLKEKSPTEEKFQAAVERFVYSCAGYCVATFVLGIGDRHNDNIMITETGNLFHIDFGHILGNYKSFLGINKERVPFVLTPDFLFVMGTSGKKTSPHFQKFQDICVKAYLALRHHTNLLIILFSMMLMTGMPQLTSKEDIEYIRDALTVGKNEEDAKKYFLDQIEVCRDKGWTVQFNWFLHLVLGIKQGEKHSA
Sequence of p110β/p85α (P42338 whole entry): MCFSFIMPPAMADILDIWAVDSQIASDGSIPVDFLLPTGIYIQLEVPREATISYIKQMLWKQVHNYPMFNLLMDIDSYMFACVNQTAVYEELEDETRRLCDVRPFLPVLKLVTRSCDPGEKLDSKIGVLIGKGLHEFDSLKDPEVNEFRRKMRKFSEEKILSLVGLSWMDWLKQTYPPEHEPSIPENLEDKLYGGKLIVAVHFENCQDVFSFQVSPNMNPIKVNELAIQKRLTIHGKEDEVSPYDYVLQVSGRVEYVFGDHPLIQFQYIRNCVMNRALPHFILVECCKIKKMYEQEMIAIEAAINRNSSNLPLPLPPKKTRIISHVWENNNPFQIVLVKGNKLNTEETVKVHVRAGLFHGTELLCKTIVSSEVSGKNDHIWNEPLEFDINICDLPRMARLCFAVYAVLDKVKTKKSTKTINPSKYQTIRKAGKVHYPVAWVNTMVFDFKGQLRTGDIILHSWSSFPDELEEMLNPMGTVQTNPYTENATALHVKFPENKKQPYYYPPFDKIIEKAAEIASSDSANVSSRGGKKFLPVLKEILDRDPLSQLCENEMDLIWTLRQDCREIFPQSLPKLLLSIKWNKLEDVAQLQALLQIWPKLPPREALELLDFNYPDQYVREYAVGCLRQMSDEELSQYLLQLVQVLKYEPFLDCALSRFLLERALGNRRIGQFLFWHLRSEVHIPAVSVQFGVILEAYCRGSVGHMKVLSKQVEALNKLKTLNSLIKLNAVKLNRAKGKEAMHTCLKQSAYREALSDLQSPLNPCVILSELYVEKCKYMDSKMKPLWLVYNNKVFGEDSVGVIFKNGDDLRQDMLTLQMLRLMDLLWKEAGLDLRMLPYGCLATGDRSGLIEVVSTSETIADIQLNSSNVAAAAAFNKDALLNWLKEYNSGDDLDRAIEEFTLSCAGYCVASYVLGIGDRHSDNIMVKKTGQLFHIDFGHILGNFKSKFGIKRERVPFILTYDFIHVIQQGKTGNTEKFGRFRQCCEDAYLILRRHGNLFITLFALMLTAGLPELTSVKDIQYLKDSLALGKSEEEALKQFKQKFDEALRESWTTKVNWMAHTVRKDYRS
Sequence of p110β/p85α (P27986 whole entry partner): as the sequence (P27986 whole entry partner) above

Structure (SMILES)	IC50 (p110γ; read-out: PI3K γ IC50) [µM]	IC50 (p110β/p85α; read-out: PI3K β IC50) [µM]	IC50 (p110α/p85α; read-out: PI3K α IC50) [µM]	IC50 (p110δ/p85α; read-out: PI3K δ IC50) [µM]	further results
Nc1nc2cc(-c3ccc4ncc(C(=O)NC5CCOCC5)n4c3)ccc2o1 [compound 83]	< 0.1	< 10	< 0.1	< 0.1	
Nc1nc2cc(-c3ccc4ncnc(NC5CCN(C(=O)C6CC6)CC5)c4c3)ccc2o1 [compound 89]	< 0.1	< 10	< 0.1	< 0.1	
CS(=O)(=O)N1CCC(Nc2cnc3ccc(-c4ccc5oc(N)nc5c4)cc3n2)CC1 [compound 95]	< 0.1	< 10	< 0.1	< 0.1	
Nc1nc2cc(-c3ccc4ncc(N[C@H]5CC[C@H](O)CC5)nc4c3)ccc2o1 [compound 128]	< 0.1	< 10	< 0.1	< 0.1	
CC(=O)NC1CCN(C(=O)c2cnc3ccc(-c4ccc5oc(N)nc5c4)cn23)CC1 [compound 147]	< 10	< 10	< 1	< 10	
Nc1nc2cc(-c3ccc4ncc(N5CC(C(=O)N6CCOCC6)C5)nc4c3)ccc2o1 [compound 252]					IC50 (p110γ; [1]): < 10 µM; IC50 (p110β/p85α; [2]): < 10 µM; IC50 (p110δ/p85α; [3]): < 10 µM
CN1CCN(C(=O)C2CN(c3cnc4ccc(-c5ccc6oc(N)nc6c5)cc4n3)C2)CC1 [compound 253]					IC50 (p110γ; [1]): < 10 µM; IC50 (p110β/p85α; [2]): < 10 µM; IC50 (p110δ/p85α; [3]): < 10 µM
Nc1nc2cc(-c3ccc4ncn(CCCN5CCCC5)c(=O)c4c3)ccc2o1 [compound 271]					IC50 (p110β/p85α; [2]): < 10 µM; IC50 (p110α/p85α; [4]): < 1 µM; IC50 (p110δ/p85α; [3]): < 10 µM
Nc1nc2cc(-c3ccc4ncc(C(=O)NCCN5CCCC5)n4c3)ccc2o1 [compound 296]					IC50 (p110β/p85α; [2]): < 10 µM; IC50 (p110α/p85α; [4]): < 1 µM; IC50 (p110δ/p85α; [3]): < 1 µM
CC1(C)CN(c2cnc3ccc(-c4ccc5oc(N)nc5c4)cc3n2)CCN1 [compound 336]					IC50 (p110β/p85α; [2]): < 1 µM; IC50 (p110α/p85α; [4]): < 1 µM; IC50 (p110δ/p85α; [3]): < 10 µM
C[C@H]1CN(C2CN(c3cnc4ccc(-c5ccc6oc(N)nc6c5)cc4n3)C2)CCN1 [compound 350]					IC50 (p110β/p85α; [2]): < 10 µM; IC50 (p110α/p85α; [4]): < 0.1 µM; IC50 (p110δ/p85α; [3]): < 10 µM
Cc1c(-c2ccc3oc(N)nc3c2)ccc2ncc(N3CCN[C@@H](C)C3)nc12 [compound 374]					IC50 (p110β/p85α; [2]): < 0.1 µM; IC50 (p110α/p85α; [4]): < 1 µM; IC50 (p110δ/p85α; [3]): < 10 µM
O=C(c1cnc2ccc(-c3cnc4[nH]ncc4c3)cn12)N1CCOCC1 [compound 492]					IC50 (p110γ; read-out: PI3K γ In Vitro IC50): < 10 µM; IC50 (p110β/p85α; read-out: PI3K β In Vitro IC50): < 10 µM; IC50 (p110δ/p85α; read-out: PI3K δ In Vitro IC50): < 10 µM
Nc1nc2cc(-c3ccc4ncc(C(=O)N5CCC(N6CCC(F)(F)C6)C5)n4c3)ccc2o1 (stereo not drawn) [compound 500]					IC50 (p110γ; read-out: PI3K γ In Vitro IC50): < 10 µM; IC50 (p110α/p85α; read-out: PI3K α In Vitro IC50): < 1 µM; IC50 (p110δ/p85α; read-out: PI3K δ In Vitro IC50): < 10 µM
Nc1nc2cc(-c3ccc4ncc(C(=O)N5CC(N6CCC(F)(F)C6)C5)n4c3)ccc2o1 [compound 502]					IC50 (p110γ; read-out: PI3K γ In Vitro IC50): < 1 µM; IC50 (p110α/p85α; read-out: PI3K α In Vitro IC50): < 0.1 µM; IC50 (p110δ/p85α; read-out: PI3K δ In Vitro IC50): < 10 µM
COc1ncc(-c2ccc3ncc(C(=O)N4CCOCC4)n3c2)c2cn[nH]c12 [compound 517]					IC50 (p110γ; read-out: PI3K γ In Vitro IC50): < 10 µM; IC50 (p110α/p85α; read-out: PI3K α In Vitro IC50): < 1 µM; IC50 (p110δ/p85α; read-out: PI3K δ In Vitro IC50): < 10 µM

Now from value to molecule, other results behind:

IC50 (p110γ; read-out: PI3K γ IC50) [µM]	IC50 (p110β/p85α; read-out: PI3K β IC50) [µM]	IC50 (p110α/p85α; read-out: PI3K α IC50) [µM]	IC50 (p110δ/p85α; read-out: PI3K δ IC50) [µM]	Structure (SMILES)	further results
< 1	< 1	< 0.1	< 1	Nc1nsc2cc(-c3ccc4nccc(-c5ccncc5)c4c3)ccc12 [compound 13]	
< 0.1	< 1	< 0.1	< 1	Nc1nc2cccc(-c3ccc4nccc(-c5ccncc5)c4c3)c2s1 [compound 17]	
	< 0.1	< 0.1	< 0.1	Nc1nc2cc(-c3ccc4nccc(-c5cn[nH]c5)c4c3)ccc2o1 [compound 20]	
< 10	< 10	< 1	< 10	CN1CCN(c2ccnc3ccc(-c4ccc5oc(N)nc5c4)cc23)CC1 [compound 21]	
< 0.1	< 1	< 0.1	< 10	CN1CCN(c2ncnc3ccc(-c4ccc5oc(N)nc5c4)cc23)CC1 [compound 23]	
< 0.1	< 1	< 0.1	< 0.1	Nc1nc2cc(-c3ccc4ncnc(NC5CCOCC5)c4c3)ccc2o1 [compound 24]	
< 0.1	< 0.1	< 0.1	< 0.1	Nc1nc2cc(-c3ccc4ncc(-c5cccnc5)n4n3)ccc2o1 [compound 58]	
< 0.1	< 0.1	< 0.1	< 1	Nc1nc2cc(-c3ccc4ncc(-c5cn[nH]c5)n4n3)ccc2o1 [compound 59]	
< 1	< 10	< 0.1	< 10	Nc1nc2cc(-c3cn4c(-c5ccncc5)cnc4cn3)ccc2o1 [compound 68]	
< 1	< 10	< 1	< 10	Nc1nc2cc(-c3cn4c(-c5cn[nH]c5)cnc4cn3)ccc2o1 [compound 69]	
< 0.1	< 0.1	< 0.1	< 0.1	Nc1nc2cc(-c3ccc4nccc(-c5ccncc5)c4c3)ccc2s1 [compound 70]	
< 0.1	< 10	< 0.1	< 1	Nc1nc2cc(-c3ccc4ncc(-c5ccncc5)nc4c3)ccc2o1 [compound 71]	
< 0.1	< 1	< 0.1	< 1	Nc1nc2cc(-c3ccc4ncc(-c5cn[nH]c5)nc4c3)ccc2o1 [compound 78]	
< 1	< 1	< 0.1	< 0.1	CN1CCC(Nc2cnc3ccc(-c4ccc5oc(N)nc5c4)cc3n2)CC1 [compound 81]	
< 0.1	< 10	< 0.1	< 0.1	CC(=O)N1CCC(Nc2cnc3ccc(-c4ccc5oc(N)nc5c4)cc3n2)CC1 [compound 82]	
< 0.1	< 0.1	< 0.1	< 0.1	CC(=O)N1CCN(c2cnc3ccc(-c4ccc5oc(N)nc5c4)cc3n2)CC1 [compound 85]	
< 0.1	< 1	< 0.1	< 1	CS(=O)(=O)N1CCN(c2cnc3ccc(-c4ccc5oc(N)nc5c4)cc3n2)CC1 [compound 86]	
< 0.1	< 1	< 0.1	< 0.1	CS(=O)(=O)N1CCC(Nc2ncnc3ccc(-c4ccc5oc(N)nc5c4)cc23)CC1 [compound 87]	
< 0.1	< 1	< 0.1	< 10	Cn1cc(-c2cnc3ccc(-c4ccc5oc(N)nc5c4)cc3n2)cn1 [compound 94]	
< 0.1	< 1	< 0.1	< 1	CC(C)(C#N)c1ccc(Nc2ncnc3ccc(-c4ccc5oc(N)nc5c4)cc23)cc1 [compound 102]	
< 1	< 1	< 1	< 1	CC1CN(c2cnc3ccc(-c4ccc5oc(N)nc5c4)cc3n2)CC(C)N1 (stereo not drawn) [compound 131]	
< 1	< 1	< 0.1	< 0.1	CN1CC(C(=O)N2CCC(Nc3ncnc4ccc(-c5ccc6oc(N)nc6c5)cc34)CC2)C1 [compound 138]	
< 1	< 0.1	< 0.1	< 10	CC1CN(c2cnc3ccc(-c4ccc5oc(N)nc5c4)cc3n2)CCN1 (stereo not drawn) [compound 149]	
